Laboratory results taken from ChEMBL document CHEMBL1154559, “New bisindole alkaloids of the topsentin and hamacanthin classes from the Mediterranean marine sponge Rhaphisia lacazei” (J Nat Prod, 2000).
≈ marks a conversion by molar mass, not a printed value.

Assay: Cytotoxicity against human NSCLC-N6 cells by colorimetric assay
Type: functional, cell-based

With `O=C(c1nc(-c2c[nH]c3cc(Br)ccc23)c[nH]1)c1c[nH]c2cc(O)ccc12` [BROMOTOPSENTIN] the IC50 was 6.3 µg/mL (≈ 15 µM).
Work on `O=C(c1nc(-c2c[nH]c3ccccc23)c[nH]1)c1c[nH]c2cc(O)ccc12` [TOPSENTIN] yielded an IC50 of 12 µg/mL (≈ 35.1 µM).
